ChEMBL document CHEMBL5120927, “LEGO-Lipophosphonoxins: A Novel Approach in Designing Membrane Targeting Antimicrobials” (J Med Chem, 2022)
Active and inactive are the calls of the source. The rule behind the calls is not given here.

Experiments:
Escherichia coli [1] = experiment: Antibacterial activity against Escherichia coli ATCC 25922 = CCM 3954 assessed as inhibition of bacterial growth incubated for 24 hrs in presence of BSA by microdilution assay; format: functional
[2] = Toxicity in rabbit assessed as skin irritation at 100 to 200 mg/L after administration bandaged for 4 hrs and measured after 1 to 72 hrs of contact time; set-up: species or system Oryctolagus cuniculus; details: in vivo, topical_or_ocular, dose lower 100 mg/L, time lower 1 hrs, dose upper 200 mg/L, time upper 76 hrs
[3] = Gradient chromatographic hydrophobicity index of the compound at pH 3.7 by HPLC analysis; format: ADME
Pseudomonas aeruginosa [4] = experiment: Antibacterial activity against Pseudomonas aeruginosa ATCC 27853 = CCM 3955 assessed as inhibition of bacterial growth incubated for 24 hrs by microdilution assay; format: functional
Escherichia coli [5] = experiment: Antibacterial activity against Escherichia coli ATCC 25922 = CCM 3954 assessed as inhibition of bacterial growth incubated for 24 hrs by microdilution assay; format: functional
Staphylococcus aureus [6] = experiment: Antibacterial activity against wild type Staphylococcus aureus 78/CF assessed as reduction in microbial growth incubated for 24 hrs by microdilution assay; format: functional
Cell membrane [7] = experiment: Induction of cell envelope damage in Staphylococcus aureus assessed as tubular structure at 8 mg/L measured after 8 hrs by scanning electron microscope analysis
[8] = test system: Staphylococcus epidermidis; experiment: Antibacterial activity against Staphylococcus epidermidis CCM 7221 assessed as inhibition of bacterial growth incubated for 24 hrs by microdilution assay; format: functional
Pseudomonas aeruginosa [9] = experiment: Antibacterial activity against multidrug-resistant Pseudomonas aeruginosa assessed as reduction in microbial growth incubated for 24 hrs by microdilution assay; format: functional
Staphylococcus aureus [10] = experiment: Antibacterial activity against Staphylococcus aureus ATCC 29213 = CCM 4223 assessed as inhibition of bacterial growth incubated for 24 hrs in presence of BSA by microdilution assay; format: functional
Staphylococcus aureus [11] = experiment: microbe, parasite or virus in culture; details: 4862/C, 24 h
Description: Antibacterial activity against wild type Staphylococcus aureus 4862/C assessed as reduction in microbial growth incubated for 24 hrs by microdilution assay

Enterococcus faecium = experiment: Antibacterial activity against vancomycin resistant Enterococcus faecium 419/ANA assessed as reduction in microbial growth incubated for 24 hrs by microdilution assay; format: functional
Staphylococcus aureus [12] = experiment: Antibacterial activity against wild type Staphylococcus aureus 4740/B assessed as reduction in microbial growth incubated for 24 hrs by microdilution assay; format: functional
Staphylococcus aureus [13] = experiment: Antibacterial activity against Staphylococcus aureus ATCC 29213 = CCM 4223 assessed as inhibition of bacterial growth incubated for 24 hrs by microdilution assay; format: functional
Staphylococcus aureus [14] = experiment: Antibacterial activity against methicillin resistant Staphylococcus aureus 4591/A assessed as reduction in microbial growth incubated for 24 hrs by microdilution assay; format: functional
Staphylococcus aureus [15] = experiment: Antibacterial activity against wild type Staphylococcus aureus 77/CF assessed as reduction in microbial growth incubated for 24 hrs by microdilution assay; format: functional
[16] = Hemolytic activity in human RBC assessed as haemoglobin release measured after 3 hr; format: toxicity, cell-based, Erythrocyte; details: red blood cells (erythrocytes)
Staphylococcus aureus [17] = experiment: Antibacterial activity against wild type Staphylococcus aureus 4968/C assessed as reduction in microbial growth incubated for 24 hrs by microdilution assay; format: functional
[18] = Cytotoxicity against human HepG2 cells assessed as reduction in cell viability; format: toxicity, cell-based
Cell membrane [19] = experiment: Induction of cell envelope damage in Staphylococcus aureus assessed as loss of cytoplasmic content at 8 mg/L measured after 8 hrs by scanning electron microscope analysis; format: subcellular
Staphylococcus aureus [20] = experiment: Antibacterial activity against wild type Staphylococcus aureus 4738/B assessed as reduction in microbial growth incubated for 24 hrs by microdilution assay; format: functional
Cell membrane [21] = experiment: Induction of cell envelope damage in Staphylococcus aureus assessed as membranous nanotubes extrude from dying/dead cells at 8 mg/L measured after 8 hrs by scanning electron microscope analysis
Staphylococcus aureus [22] = experiment: Antibacterial activity against wild type Staphylococcus aureus 5079/C assessed as reduction in microbial growth incubated for 24 hrs by microdilution assay; format: functional
Staphylococcus aureus [23] = experiment: Bactericidal activity against Staphylococcus aureus CCM 4223 assessed as reduction in viable cell count measured after 24 hrs by Time kill assay; format: functional, organism-based; details: DDE = dose-dependent effect
Staphylococcus aureus [24] = experiment: Antibacterial activity against […] Staphylococcus aureus 4461/A assessed as reduction in microbial growth incubated for 24 hrs by microdilution assay; format: functional
Staphylococcus aureus [25] = experiment: Antibacterial activity against wild type Staphylococcus aureus 4504/A assessed as reduction in microbial growth incubated for 24 hrs by microdilution assay; format: functional
Staphylococcus aureus [26] = experiment: Antibacterial activity against wild type Staphylococcus aureus 4482/A assessed as reduction in microbial growth incubated for 24 hrs by microdilution assay; format: functional
Staphylococcus aureus [27] = experiment: Antibacterial activity against […] Staphylococcus aureus 4463/A assessed as reduction in microbial growth incubated for 24 hrs by microdilution assay; format: functional
[28] = Toxicity in human cornea epidermis model assessed as eye irritation incubated for 42 hrs; format: tissue-based
Staphylococcus aureus [29] = experiment: Antibacterial activity against wild type Staphylococcus aureus 4788/B assessed as reduction in microbial growth incubated for 24 hrs by microdilution assay; format: functional
Escherichia coli [30] = experiment: Antibacterial activity against multidrug-resistant Escherichia coli CE5556 expressing CTX-M-15 assessed as reduction in microbial growth incubated for 24 hrs by microdilution assay; format: functional
[31] = Toxicity in rabbit assessed as maximum tolerated dose administered orally; set-up: species or system Oryctolagus cuniculus; details: in vivo, route po
Staphylococcus aureus [32] = experiment: Antibacterial activity against wild type Staphylococcus aureus 4679/B assessed as reduction in microbial growth incubated for 24 hrs by microdilution assay; format: functional
[33] = Toxicity in human epidermis model assessed as skin irritation incubated for 42 hrs; format: tissue-based
Staphylococcus aureus [34] = experiment: microbe, parasite or virus in culture; details: 5017/C, 24 h
Description: Antibacterial activity against wild type Staphylococcus aureus 5017/C assessed as reduction in microbial growth incubated for 24 hrs by microdilution assay

Escherichia coli [35] = experiment: Bactericidal activity against Escherichia coli CCM 3954 assessed as reduction in viable cell count measured after 24 hrs by Time kill assay; format: functional, organism-based; details: dose 2-8 mg/L, DDE = dose-dependent effect
Staphylococcus aureus [36] = experiment: Antibacterial activity against wild type Staphylococcus aureus 4561/A assessed as reduction in microbial growth incubated for 24 hrs by microdilution assay; format: functional
Staphylococcus aureus [37] = experiment: Antibacterial activity against wild type Staphylococcus aureus 4515/A assessed as reduction in microbial growth incubated for 24 hrs by microdilution assay; format: functional
Staphylococcus aureus [38] = experiment: Antibacterial activity against wild type Staphylococcus aureus 4566/A assessed as reduction in microbial growth incubated for 24 hrs by microdilution assay; format: functional
Enterococcus faecalis = experiment: Antibacterial activity against Enterococcus faecalis ATCC 29212 = CCM 4224 assessed as inhibition of bacterial growth incubated for 24 hrs by microdilution assay; format: functional
Staphylococcus aureus [39] = experiment: Antibacterial activity against wild type Staphylococcus aureus 4883/C assessed as reduction in microbial growth incubated for 24 hrs by microdilution assay; format: functional
Staphylococcus aureus [40] = experiment: Antibacterial activity against wild type Staphylococcus aureus 4904/C assessed as reduction in microbial growth incubated for 24 hrs by microdilution assay; format: functional
Staphylococcus aureus [41] = experiment: Antibacterial activity against […] Staphylococcus aureus 4460/A assessed as reduction in microbial growth incubated for 24 hrs by microdilution assay; format: functional
[42] = Toxicity in rabbit assessed as maximum tolerated dose administered subcutaneously; set-up: species or system Oryctolagus cuniculus; details: in vivo, route sc
Staphylococcus aureus [43] = experiment: Antibacterial activity against wild type Staphylococcus aureus 4502/A assessed as reduction in microbial growth incubated for 24 hrs by microdilution assay; format: functional
Staphylococcus aureus [44] = experiment: Antibacterial activity against wild type Staphylococcus aureus 4717/B assessed as reduction in microbial growth incubated for 24 hrs by microdilution assay; format: functional
Staphylococcus aureus [45] = experiment: microbe, parasite or virus in culture; details: 4880/C, 24 h
Description: Antibacterial activity against wild type Staphylococcus aureus 4880/C assessed as reduction in microbial growth incubated for 24 hrs by microdilution assay

Cell membrane [46] = experiment: Induction of cell envelope damage in Staphylococcus aureus assessed as loss of cell integrity at 8 mg/L measured after 8 hrs by scanning electron microscope analysis; format: subcellular
[47] = Toxicity in human cornea epidermis model assessed as tissue viability pretreated for 1 hr and measured after 42 hrs by MTT assay relative to control; format: tissue-based; details: read-out: Activity
[48] = Toxicity in rabbit assessed as eye irritation at 100 mg/L measured at 1 to 168 hrs; set-up: species or system Oryctolagus cuniculus; details: in vivo, topical_or_ocular, time 1-168 hrs
Staphylococcus aureus [49] = experiment: Antibacterial activity against wild type Staphylococcus aureus 4557/A assessed as reduction in microbial growth incubated for 24 hrs by microdilution assay; format: functional
[50] = Toxicity in rabbit assessed as clinical sign at 10 to 200 mg/kg, po; format: organism-based, Oryctolagus cuniculus; details: in vivo, dose 10-200 mg/kg
[51] = Toxicity in rabbit assessed as clinical sign at 0.5 to 15 mg/kg, sc; format: organism-based, Oryctolagus cuniculus; details: in vivo, dose 0.5-15 mg/kg
[52] = Toxicity in rabbit assessed as pathological changes in necropsy at 10 to 200 mg/kg, po; format: organism-based, Oryctolagus cuniculus; details: in vivo, dose 10-200 mg/kg
[53] = Toxicity in rabbit assessed as pathological changes in necropsy at 0.5 to 15 mg/kg, sc; format: organism-based, Oryctolagus cuniculus; details: in vivo, dose 0.5-15 mg/kg

CCCCCCCCOP(=O)(CCN(CCCN)CCCN)OCCCCOP(=O)(CCN(CCCN)CCCN)OCCCCCCCC.Cl.Cl.Cl.Cl.Cl.Cl (configuration not stated)
MIC (Escherichia coli [1]): 1 µg/mL | Activity [2]: Non-Toxic | CHI [3]: 35.3 | MIC (Pseudomonas aeruginosa [4]): 4 µg/mL | MIC (Escherichia coli [5]): 2 µg/mL | MIC (Staphylococcus aureus [6]): 2 µg/mL | Activity (Cell membrane [7]): Active | MIC [8]: 1 µg/mL | MIC (Pseudomonas aeruginosa [9]): 4 µg/mL | MIC (Staphylococcus aureus [10]): 2 µg/mL | MIC (Staphylococcus aureus [11]): 1 µg/mL | MIC (Enterococcus faecium): 64 µg/mL | MIC (Staphylococcus aureus [12]): 1 µg/mL | MIC (Staphylococcus aureus [13]): 2 µg/mL | MIC (Staphylococcus aureus [14]): 2 µg/mL | MIC (Staphylococcus aureus [15]): 2 µg/mL | HC50 at 3 h [16]: 263 µg/mL | MIC (Staphylococcus aureus [17]): 2 µg/mL | CC50 [18]: 95.9 µM | Activity (Cell membrane [19]): Active | MIC (Staphylococcus aureus [20]): 1 µg/mL | Activity (Cell membrane [21]): Active | MIC (Staphylococcus aureus [22]): 1 µg/mL | Activity (Staphylococcus aureus [23]): Dde | MIC (Staphylococcus aureus [24]): 2 µg/mL | MIC (Staphylococcus aureus [25]): 2 µg/mL | MIC (Staphylococcus aureus [26]): 1 µg/mL | MIC (Staphylococcus aureus [27]): 2 µg/mL | Activity [28]: Non-Toxic | MIC (Staphylococcus aureus [29]): 1 µg/mL | MIC (Escherichia coli [30]): 2 µg/mL | MTD [31]: > 200 mg/kg | MIC (Staphylococcus aureus [32]): 2 µg/mL | Activity [33]: Non-Toxic | MIC (Staphylococcus aureus [34]): 1 µg/mL | Activity (Escherichia coli [35]): Dde | MIC (Staphylococcus aureus [36]): 2 µg/mL | MIC (Staphylococcus aureus [37]): 1 µg/mL | MIC (Staphylococcus aureus [38]): 1 µg/mL | MIC (Enterococcus faecalis): 4 µg/mL | MIC (Staphylococcus aureus [39]): 1 µg/mL | MIC (Staphylococcus aureus [40]): 1 µg/mL | MIC (Staphylococcus aureus [41]): 1 µg/mL | MTD [42]: > 15 mg/kg | MIC (Staphylococcus aureus [43]): 2 µg/mL | MIC (Staphylococcus aureus [44]): 1 µg/mL | MIC (Staphylococcus aureus [45]): 1 µg/mL | Activity (Cell membrane [46]): Active | viability at 42 h [47]: > 60% | Activity [48]: Non-Toxic | MIC (Staphylococcus aureus [49]): 1 µg/mL

CCCC/C=C\CCOP(=O)(CCN(CCCN)CCCN)OCCCCCOP(=O)(CCN(CCCN)CCCN)OCC/C=C\CCCC.Cl.Cl.Cl.Cl.Cl.Cl (configuration not stated)
MIC (Escherichia coli [1]): 4 µg/mL | CHI [3]: 33.3 | MIC (Pseudomonas aeruginosa [4]): 32 µg/mL | MIC (Escherichia coli [5]): 8 µg/mL | MIC (Staphylococcus aureus [6]): 8 µg/mL | MIC [8]: 0.5 µg/mL | MIC (Pseudomonas aeruginosa [9]): 32 µg/mL | MIC (Staphylococcus aureus [10]): 8 µg/mL | Activity [50]: Non-Toxic | MIC (Staphylococcus aureus [11]): 4 µg/mL | MIC (Enterococcus faecium): 128 µg/mL | MIC (Staphylococcus aureus [12]): 4 µg/mL | Activity [51]: Non-Toxic | MIC (Staphylococcus aureus [13]): 2 µg/mL | MIC (Staphylococcus aureus [14]): 2 µg/mL | MIC (Staphylococcus aureus [15]): 4 µg/mL | HC50 at 3 h [16]: 70 µg/mL | MIC (Staphylococcus aureus [17]): 4 µg/mL | MIC (Staphylococcus aureus [20]): 4 µg/mL | MIC (Staphylococcus aureus [22]): 4 µg/mL | Activity [52]: Non-Toxic | MIC (Staphylococcus aureus [24]): 4 µg/mL | MIC (Staphylococcus aureus [25]): 4 µg/mL | MIC (Staphylococcus aureus [26]): 4 µg/mL | MIC (Staphylococcus aureus [27]): 4 µg/mL | MIC (Staphylococcus aureus [29]): 4 µg/mL | MIC (Escherichia coli [30]): 4 µg/mL | MIC (Staphylococcus aureus [32]): 4 µg/mL | MIC (Staphylococcus aureus [34]): 4 µg/mL | MIC (Staphylococcus aureus [36]): 4 µg/mL | MIC (Staphylococcus aureus [37]): 4 µg/mL | Activity [53]: Non-Toxic | MIC (Staphylococcus aureus [38]): 4 µg/mL | MIC (Enterococcus faecalis): 32 µg/mL | MIC (Staphylococcus aureus [39]): 2 µg/mL | MIC (Staphylococcus aureus [40]): 4 µg/mL | MIC (Staphylococcus aureus [41]): 4 µg/mL | MIC (Staphylococcus aureus [43]): 4 µg/mL | MIC (Staphylococcus aureus [44]): 2 µg/mL | MIC (Staphylococcus aureus [45]): 4 µg/mL | MIC (Staphylococcus aureus [49]): 2 µg/mL
